# Test results: ChEMBL document CHEMBL5346872 (Eur J Med Chem, 2023)
# Activity calls are given as the source filed them. The calls are words filed in the database; no cut-off is given here.
# Legend:
# [1] = biological target: T1, beta-catenin-B-cell lymphoma 9 protein complex (Homo sapiens, UniProt P35222); assay: Inhibition of beta-catenin (unknown origin) to BCL9-FAM (unknown origin) protein-protein interaction preincubated for 2 hrs followed by BCL9 addition and measured after 2 hrs by fluorescence polarization assay; assay type: protein-complex assay
# T1 sequence (P35222 whole entry): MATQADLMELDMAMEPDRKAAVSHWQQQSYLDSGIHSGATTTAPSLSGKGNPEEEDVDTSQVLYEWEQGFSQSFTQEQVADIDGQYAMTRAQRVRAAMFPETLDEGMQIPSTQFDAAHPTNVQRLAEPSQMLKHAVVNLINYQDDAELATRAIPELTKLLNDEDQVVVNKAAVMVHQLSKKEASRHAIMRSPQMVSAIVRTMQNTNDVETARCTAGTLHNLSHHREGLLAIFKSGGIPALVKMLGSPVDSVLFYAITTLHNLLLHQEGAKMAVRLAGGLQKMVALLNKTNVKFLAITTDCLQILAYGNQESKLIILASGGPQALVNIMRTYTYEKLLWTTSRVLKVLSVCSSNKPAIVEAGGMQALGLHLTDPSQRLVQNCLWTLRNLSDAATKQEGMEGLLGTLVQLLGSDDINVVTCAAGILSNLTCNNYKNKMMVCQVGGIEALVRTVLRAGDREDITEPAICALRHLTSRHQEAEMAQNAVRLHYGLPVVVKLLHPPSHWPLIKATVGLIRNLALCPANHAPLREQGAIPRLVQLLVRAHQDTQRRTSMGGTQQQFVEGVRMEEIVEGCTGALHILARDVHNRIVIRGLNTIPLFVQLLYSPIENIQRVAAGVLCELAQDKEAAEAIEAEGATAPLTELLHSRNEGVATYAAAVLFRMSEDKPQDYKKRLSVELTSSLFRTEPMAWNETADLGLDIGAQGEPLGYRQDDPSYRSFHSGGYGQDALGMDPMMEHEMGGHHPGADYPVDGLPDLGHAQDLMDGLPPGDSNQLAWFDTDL
# T1 sequence (O00512 whole entry): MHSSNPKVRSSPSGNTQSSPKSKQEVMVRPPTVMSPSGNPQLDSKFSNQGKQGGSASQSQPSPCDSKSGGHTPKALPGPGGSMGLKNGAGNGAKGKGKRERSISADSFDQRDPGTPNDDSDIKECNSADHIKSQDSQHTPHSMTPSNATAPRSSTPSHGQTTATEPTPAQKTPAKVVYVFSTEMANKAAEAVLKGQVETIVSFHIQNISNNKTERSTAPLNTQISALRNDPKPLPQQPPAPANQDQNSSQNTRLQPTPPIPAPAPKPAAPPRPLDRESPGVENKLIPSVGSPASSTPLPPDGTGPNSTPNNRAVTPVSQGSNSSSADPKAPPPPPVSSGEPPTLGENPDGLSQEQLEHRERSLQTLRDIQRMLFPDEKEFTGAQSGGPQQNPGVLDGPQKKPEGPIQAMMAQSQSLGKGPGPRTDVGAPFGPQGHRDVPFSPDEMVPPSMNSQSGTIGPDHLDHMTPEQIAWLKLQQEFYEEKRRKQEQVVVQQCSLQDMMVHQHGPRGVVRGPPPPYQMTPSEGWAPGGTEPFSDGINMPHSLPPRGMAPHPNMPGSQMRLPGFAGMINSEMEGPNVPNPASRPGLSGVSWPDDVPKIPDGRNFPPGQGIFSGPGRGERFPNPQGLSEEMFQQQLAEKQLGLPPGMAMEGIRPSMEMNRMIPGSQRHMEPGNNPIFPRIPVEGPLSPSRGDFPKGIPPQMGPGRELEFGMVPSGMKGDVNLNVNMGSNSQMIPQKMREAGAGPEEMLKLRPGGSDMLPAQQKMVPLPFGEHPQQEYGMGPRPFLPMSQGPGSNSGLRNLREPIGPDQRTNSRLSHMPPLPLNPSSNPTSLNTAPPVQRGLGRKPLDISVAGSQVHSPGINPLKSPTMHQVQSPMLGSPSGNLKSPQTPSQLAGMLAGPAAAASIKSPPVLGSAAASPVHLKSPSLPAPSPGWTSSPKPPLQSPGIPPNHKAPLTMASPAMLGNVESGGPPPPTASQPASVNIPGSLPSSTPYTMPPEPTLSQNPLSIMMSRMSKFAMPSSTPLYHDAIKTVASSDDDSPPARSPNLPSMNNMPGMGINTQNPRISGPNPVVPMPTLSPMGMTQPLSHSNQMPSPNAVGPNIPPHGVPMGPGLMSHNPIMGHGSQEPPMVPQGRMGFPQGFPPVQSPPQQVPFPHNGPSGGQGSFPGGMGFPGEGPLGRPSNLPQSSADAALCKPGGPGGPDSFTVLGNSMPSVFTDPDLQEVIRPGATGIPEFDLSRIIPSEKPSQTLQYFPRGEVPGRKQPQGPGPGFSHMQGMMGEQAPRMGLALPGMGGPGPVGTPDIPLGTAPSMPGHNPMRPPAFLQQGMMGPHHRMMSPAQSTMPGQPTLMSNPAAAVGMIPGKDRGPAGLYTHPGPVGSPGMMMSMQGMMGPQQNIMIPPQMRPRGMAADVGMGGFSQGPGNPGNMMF
# HEK293 = assay: Antiproliferative activity against HEK293 cells assessed as reduction in cell viability incubated for 48 hrs by CCK8 assay; settings: Homo sapiens, HEK293, 48 h
# CT26 [2] = assay: Antitumor activity against mouse CT26 cells implanted in BALB/c mouse assessed as downregulation of interleukin-10 gene expression at 30 mg/kg, ip administered once daily and measured on day 14 by qPCR analysis; assay type: functional, organism-based; settings: time 14.0 day
# [3] = Inhibition of Wnt/beta-catenin signaling in BCL9 knockdown mouse CT26 cells assessed as reduction in Axin2 expression incubated for 24 hrs by qPCR analysis; settings: CT26, 24 h
# [4] = Toxicity in BALB/c mouse assessed as body weight loss at 30 mg/kg, ip administered once daily measured after 14 days; assay type: organism-based; settings: in vivo, 336 h, time 14 day
# CT26 [5] = assay: Antitumor activity against mouse CT26 cells implanted in BALB/c mouse assessed as induction of immune microenvironment at 30 mg/kg, ip administered once daily and measured on day 14 by qPCR analysis; assay type: functional, organism-based; settings: time 14.0 day
# CT26 [6] = assay: Induction of apoptosis in mouse CT26 cells assessed as early apoptosis at 5 to 40 uM incubated for 24 hrs by annexin V and PI staining based flow cytometry analysis; assay type: functional, cell-based; settings: dose 5-40 µM
# CT26 [7] = assay: Antitumor activity against mouse CT26 cells implanted in BALB/c mouse assessed as increase in granzyme B expression at 30 mg/kg, ip administered once daily and measured on day 14 by qPCR analysis; assay type: functional, organism-based; settings: time 14.0 day
# CT26 [8] = settings: Mus musculus, dose 30.0 mg/kg, route ip, time 14.0 day
# Description: In vivo inhibition of Wnt/beta-catenin signaling in mouse CT26 cells implanted in BALB/c mouse assessed as reduction in Axin2 expression at 30 mg/kg, ip administered once daily and measured on day 14 by qPCR analysis
# HCT-116 = assay: Antiproliferative activity against human HCT-116 cells assessed as reduction in cell viability incubated for 48 hrs by CCK8 assay; settings: HCT-116, 48 h
# CT26 [9] = assay: Antitumor activity against mouse CT26 cells implanted in BALB/c mouse assessed as tumor growth inhibition at 30 mg/kg, ip administered once daily and measured on day 14; assay type: functional; settings: CT26, 336 h, time 14 day, read-out: TGI
# [10] = Inhibition of Wnt/beta-catenin signaling in human HCT116 cells incubated for 24 hrs by TCF/LEF reporter assay; settings: HCT-116, 24 h
# [11] = Drug concentration in human HCT-116 cells assessed as retention ratio at 2 uM incubated for 24 hrs by HPLC-MS analysis; assay type: ADME, cell-based; settings: hct-116, 24 h
# [12] = Inhibition of Wnt/beta-catenin signaling in mouse CT26 cells assessed as reduction in Axin2 expression incubated for 24 hrs by qPCR analysis; settings: CT26, 24 h
# [13] = Drug concentration in human HCT-116 cells at 2 uM incubated for 24 hrs by HPLC-MS analysis; assay type: ADME, cell-based; settings: hct-116, 24 h
# CT26 [14] = assay: Inhibition of Wnt/beta-catenin signaling in mouse CT26 cells assessed as reduction in Axin2 expression incubated for 24 hrs by Western blot analysis; assay type: cell-based; settings: dose 5-20 µM
# RKO = assay: Antiproliferative activity against human RKO cells assessed as reduction in cell viability incubated for 48 hrs by CCK8 assay
# [15] = Inhibition of Wnt/beta-catenin signaling in human HCT-116 cells assessed as reduction in Axin2 expression incubated for 24 hrs by qPCR analysis; settings: HCT-116, 24 h
# CT26 [16] = assay: Induction of apoptosis in mouse CT26 cells assessed as late apoptosis at 5 to 40 uM incubated for 24 hrs by annexin V and PI staining based flow cytometry analysis; assay type: functional, cell-based; settings: dose 5-40 µM
# CT26 [17] = assay: Antiproliferative activity against mouse CT26 cells assessed as reduction in cell viability incubated for 48 hrs by CCK-8 assay; settings: CT26, 48 h
# [18] = Induction of immune microenvironment in BALB/c mouse spleen assessed as increase in granzyme B at 5 to 10 uM after 24 hrs by flow cytometry analysis (reference value: 16.7 %); assay type: functional; settings: dose 5-10 µM
SMILES,IC50 [1],IC50 [12],IC50 (CT26 [17]),also measured
O=c1c(O)c(-c2ccc(O)c(O)c2)oc2cc(OCCCN3CCOCC3)cc(O)c12,12.3 µM,,,
CN1CCN(CCCOc2cc(-c3oc4cc(O)cc(O)c4c(=O)c3O)ccc2O)CC1,,2.81 µM,3.21 µM,IC50 (HEK293): 17.7 µM; Activity (CT26 [2]): Active; IC50 [3]: 27.9 µM; Activity [4]: Non-Toxic; Activity (CT26 [5]): Active; Activity (CT26 [6]): Active; Activity (CT26 [7]): Active; inhibition (CT26 [8]): Active; IC50 (HCT-116): 4.4 µM; inhibition in vivo at 30 mg/kg (CT26 [9]): 81.4%; IC50 [10]: 15.2 µM; Drug uptake [11]: 31.31%; Drug uptake [13]: 0.63 µM; inhibition (CT26 [14]): Dose-Dependent Effect; IC50 (RKO): 26.7 µM; IC50 [15]: 9.71 µM; Activity (CT26 [16]): Active; Activity [18]: 31.1%
O=c1c(O)c(-c2ccc(O)c(OCCN3CCCCC3)c2)oc2cc(O)cc(O)c12,31.1 µM,23.1 µM,8.67 µM,
O=c1c(O)c(-c2ccc(O)c(OCCN3CCOCC3)c2)oc2cc(O)cc(O)c12,30.2 µM,38.4 µM,9.96 µM,
CCN(CC)CCOc1cc(-c2oc3cc(O)cc(O)c3c(=O)c2O)ccc1O,27.9 µM,40.7 µM,11.8 µM,
O=c1c(O)c(-c2ccc(O)c(OCCCN3CCOCC3)c2)oc2cc(O)cc(O)c12,,6.29 µM,7.85 µM,
O=c1c(O)c(-c2ccc(O)c(O)c2)oc2c(-c3ccc(O)cc3)c(O)cc(O)c12,4.46 µM,,,
O=c1c(O)c(-c2ccc(O)c(O)c2)oc2c(-c3ccccc3)c(O)cc(O)c12,18.7 µM,,,
CN1CCN(CCCOc2cc(O)c3c(=O)c(O)c(-c4ccc(O)c(O)c4)oc3c2)CC1,9.13 µM,,,
O=c1c(O)c(-c2ccc(O)c(OCCCN3CCCCC3)c2)oc2cc(O)cc(O)c12,18.6 µM,29.7 µM,7.18 µM,
O=c1c(O)c(-c2ccc(O)c(OCCN3CCCC3)c2)oc2cc(O)cc(O)c12,56.8 µM,17.6 µM,8.2 µM,
O=c1c(O)c(-c2ccc(O)c(OCCN3CCCCCC3)c2)oc2cc(O)cc(O)c12,37.4 µM,13.9 µM,7.04 µM,
O=C1[C@H](Cc2ccc(O)cc2)N2C(=O)CCN(C(=O)NCc3ccccc3)[C@H]2CN1Cc1cccc2ccccc12,,,,Activity [4]: Non-Toxic; inhibition in vivo at 30 mg/kg (CT26 [9]): 40.8%
COc1cc(OCCCN2CCN(C)CC2)c2c(=O)c(O)c(-c3ccc(O)c(O)c3)oc2c1,9.69 µM,,,
CCN(CC)CCCOc1cc(-c2oc3cc(O)cc(O)c3c(=O)c2O)ccc1O,11.7 µM,11.2 µM,23.7 µM,
COc1cc(OCCCN2CCOCC2)c2c(=O)c(O)c(-c3ccc(O)c(O)c3)oc2c1,6.09 µM,,,
CN1CCN(CCOc2cc(-c3oc4cc(O)cc(O)c4c(=O)c3O)ccc2O)CC1,78.9 µM,17.8 µM,11.7 µM,
O=c1c(O)c(-c2ccc(O)c(OCCCN3CCCCCC3)c2)oc2cc(O)cc(O)c12,20.1 µM,34.7 µM,35 µM,
O=c1c(O)c(-c2ccc(O)c(OCCCN3CCCC3)c2)oc2cc(O)cc(O)c12,25.7 µM,19.2 µM,6.26 µM,
O=c1c(O)c(-c2ccc(O)c(O)c2)oc2cc(O)cc(O)c12 [QUERCETIN],,7.7 µM,14.4 µM,IC50 [3]: 23.5 µM; Activity [4]: Non-Toxic; IC50 (HCT-116): 10.4 µM; inhibition in vivo at 30 mg/kg (CT26 [9]): 69.4%; IC50 [10]: 4.71 µM; inhibition (CT26 [14]): Dose-Dependent Effect; IC50 [15]: 3.57 µM
